For this series the following is noted: 3 wt. % in base oil CnF2n+1(CF2CF2CF2O)mCnF2n+1 (viscosity at 40° C.: 210 mm^2/s), stirred under heating, stored at 25° C. for 24 hours. The method, then: The phosphonic acid ester (3 wt. %) obtained in Example 1 or 7 was added to a base oil of the formula: CnF2n+1(CF2CF2CF2O)mCnF2n+1 (viscosity at 40° C.: 210 mm^2/s), and the mixture was sufficiently stirred under heating. After the mixture was stored at 25° C. for 24 hours, the solubility of the phosphonic acid ester in the base oil was visually observed.

As to `CCOP(=O)(CCC(F)(F)C(F)(F)C(F)(F)C(F)(F)C(F)(F)CC(F)(F)C(F)(F)C(F)(F)C(F)(F)F)OCC` [Example 1, CF3(CF2)3(CH2CF2)(CF2CF2)2(CH2CH2)P(O)(OCH2CH3)2], the “solubility of the phosphonic acid ester in the base oil (visually observed)” value was “dissolved into an almost transparent solution”.

The values are drawn from US9120833B2, “Polyfluoroalkylphosphonic acid ester and process for producing the same” (Unimatec Co., Ltd., priority 2009, dated 2015).
